Target: T1, N(4)-(beta-N-acetylglucosaminyl)-L-asparaginase (Homo sapiens, UniProt P20933)
T1 sequence (P20933 whole entry): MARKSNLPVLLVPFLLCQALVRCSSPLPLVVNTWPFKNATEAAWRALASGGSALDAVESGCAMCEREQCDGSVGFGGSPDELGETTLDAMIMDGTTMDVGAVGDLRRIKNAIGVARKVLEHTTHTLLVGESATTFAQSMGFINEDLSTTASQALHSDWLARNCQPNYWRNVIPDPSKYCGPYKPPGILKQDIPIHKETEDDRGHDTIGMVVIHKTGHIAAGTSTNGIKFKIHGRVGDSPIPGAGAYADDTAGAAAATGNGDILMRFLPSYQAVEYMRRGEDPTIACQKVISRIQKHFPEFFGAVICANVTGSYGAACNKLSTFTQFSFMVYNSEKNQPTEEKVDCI
Assay: Inhibition Assay
Details: pH 5.8; 37 °C
Protocol: Glycosylasparaginase activity was measured in citrate-phosphate buffer at pH 5.8 at 37 C. N-Acetyl-D-glucosamine released during the reaction was measured using the Morgan-Elson assay.

SMILES	Ki
N[C@H](CP(=O)(O)O)C(=O)O [CAS_23052-80-4]	900 µM
CC(=O)NC1C(NC(=O)CN)OC(CO)C(O)C1O (stereo not given) [GlcNAc-Asn analogue, 10]	750 µM
O=C(O)CCC(=O)O [Succinic acid, 6]	5000 µM
CC(=O)NC1C(NC(=O)CBr)OC(CO)C(O)C1O (stereo not given) [GlcNAc-Asn analogue, 12]	560 µM
O=C(O)CC(Cl)C(=O)O [L-2-Chlorosuccinic acid, 3]	7700 µM
N[C@@H](CC(=O)O)C(=O)O [L-Aspartic acid, 2]	600 µM
CC(=O)NC1C(NC(=O)CCl)OC(CO)C(O)C1O (stereo not given) [GlcNAc-Asn analogue, 11]	640 µM
CC(CC(=O)O)C(=O)O [D,L-2-Methylsuccinic acid, 5]	700 µM
O=C(O)CC(Br)C(=O)O [L-2-bromosuccinic acid, 4]	2700 µM
N[C@H](CS(=O)(=O)O)C(=O)O [L-cysteic acid]	1400 µM

From BindingDB's records for doi:10.1080/14756360109162375 (University of North Carolina, 2001)
